According to publication PMC10006169, “A phase I trial of LXS196, a protein kinase C (PKC) inhibitor, for metastatic uveal melanoma” (British Journal of Cancer, 2023):
Where “and” joins values, the source holds several entries; their conditions need not be identical. Equal values may be shown once.

Tested on: patients with MUM
Experiment: Adverse events regardless of study drug relationship
Type: in vivo, human
Experimental: Routine safety assessments, including laboratory assessments, physical examinations, vital signs and electrocardiograms (ECGs), were conducted at regular intervals throughout the study and more frequently as needed following patient assessment by the treating physician. Adverse events (AEs) were assessed continuously according to the National Cancer Institute Common Terminology Criteria for Adverse Events (NCI-CTCAE) v4.03.

## CC1(N)CCN(c2cccnc2NC(=O)c2nc(-c3ncccc3C(F)(F)F)cnc2N)CC1 [LXS196]
All BID
  ALT increased, all grades: 9 (30.0) n (%)
  ALT increased, grade ≥3: 2 (6.7) n (%)
  AST increased, all grades: 8 (26.7) n (%)
  AST increased, grade ≥3: 3 (10.0) n (%)
  Abdominal pain upper, all grades: 3 (10.0) n (%)
  Abdominal pain upper, grade ≥3: 0 n (%)
  Asthenia, all grades: 7 (23.3) n (%)
  Asthenia, grade ≥3: 0 n (%)
  Blood creatinine increased, all grades: 5 (16.7) n (%)
  Blood creatinine increased, grade ≥3: 0 n (%)
  Constipation, all grades: 7 (23.3) n (%)
  Constipation, grade ≥3: 0 n (%)
  Decreased appetite, all grades: 5 (16.7) n (%)
  Decreased appetite, grade ≥3: 0 n (%)
  Dermatitis acneiform, all grades: 5 (16.7) n (%)
  Dermatitis acneiform, grade ≥3: 0 n (%)
  Diarrhoea, all grades: 17 (56.7) n (%)
  Diarrhoea, grade ≥3: 1 (3.3) n (%)
  Dry skin, all grades: 6 (20.0) n (%)
  Dry skin, grade ≥3: 0 n (%)
  Fatigue, all grades: 7 (23.3) n (%)
  Fatigue, grade ≥3: 0 n (%)
  Hypotension, all grades: 7 (23.3) n (%)
  Hypotension, grade ≥3: 1 (3.3) n (%)
  Nasopharyngitis, all grades: 3 (10.0) n (%)
  Nasopharyngitis, grade ≥3: 0 n (%)
  Nausea, all grades: 21 (70.0) n (%)
  Nausea, grade ≥3: 0 n (%)
  Neutropenia, all grades: 2 (6.7) n (%)
  Neutropenia, grade ≥3: 0 n (%)
  Oedema peripheral, all grades: 8 (26.7) n (%)
  Oedema peripheral, grade ≥3: 1 (3.3) n (%)
  Patients with ≥1 AE, all grades: 30 (100) n (%)
  Patients with ≥1 AE, grade ≥3: 15 (50.0) n (%)
  Rash, all grades: 6 (20.0) n (%)
  Rash, grade ≥3: 0 n (%)
  Vomiting, all grades: 11 (36.7) n (%)
  Vomiting, grade ≥3: 0 n (%)
All QD
  ALT increased, all grades: 9 (23.7) n (%)
  ALT increased, grade ≥3: 2 (5.3) n (%)
  AST increased, all grades: 5 (13.2) n (%)
  AST increased, grade ≥3: 2 (5.3) n (%)
  Abdominal pain upper, all grades: 4 (10.5) n (%)
  Abdominal pain upper, grade ≥3: 0 n (%)
  Asthenia, all grades: 8 (21.1) n (%)
  Asthenia, grade ≥3: 0 n (%)
  Blood creatinine increased, all grades: 3 (7.9) n (%)
  Blood creatinine increased, grade ≥3: 0 n (%)
  Constipation, all grades: 10 (26.3) n (%)
  Constipation, grade ≥3: 0 n (%)
  Decreased appetite, all grades: 5 (13.2) n (%)
  Decreased appetite, grade ≥3: 0 n (%)
  Dermatitis acneiform, all grades: 2 (5.3) n (%)
  Dermatitis acneiform, grade ≥3: 0 n (%)
  Diarrhoea, all grades: 20 (52.6) n (%)
  Diarrhoea, grade ≥3: 0 n (%)
  Dry skin, all grades: 3 (7.9) n (%)
  Dry skin, grade ≥3: 0 n (%)
  Fatigue, all grades: 12 (31.6) n (%)
  Fatigue, grade ≥3: 0 n (%)
  Hypotension, all grades: 8 (21.1) n (%)
  Hypotension, grade ≥3: 5 (13.2) n (%)
  Nasopharyngitis, all grades: 4 (10.5) n (%)
  Nasopharyngitis, grade ≥3: 0 n (%)
  Nausea, all grades: 27 (71.1) n (%)
  Nausea, grade ≥3: 1 (2.6) n (%)
  Neutropenia, all grades: 5 (13.2) n (%)
  Neutropenia, grade ≥3: 2 (5.3) n (%)
  Oedema peripheral, all grades: 5 (13.2) n (%)
  Oedema peripheral, grade ≥3: 0 n (%)
  Patients with ≥1 AE, all grades: 36 (94.7) n (%)
  Patients with ≥1 AE, grade ≥3: 14 (36.8) n (%)
  Rash, all grades: 4 (10.5) n (%)
  Rash, grade ≥3: 0 n (%)
  Vomiting, all grades: 15 (39.5) n (%)
  Vomiting, grade ≥3: 1 (2.6) n (%)
All patients
  ALT increased, all grades: 18 (26.5) n (%)
  ALT increased, grade ≥3: 4 (5.9) n (%)
  AST increased, all grades: 13 (19.1) n (%)
  AST increased, grade ≥3: 5 (7.4) n (%)
  Abdominal pain upper, all grades: 7 (10.3) n (%)
  Abdominal pain upper, grade ≥3: 0 n (%)
  Asthenia, all grades: 15 (22.1) n (%)
  Asthenia, grade ≥3: 0 n (%)
  Blood creatinine increased, all grades: 8 (11.8) n (%)
  Blood creatinine increased, grade ≥3: 0 n (%)
  Constipation, all grades: 17 (25.0) n (%)
  Constipation, grade ≥3: 0 n (%)
  Decreased appetite, all grades: 10 (14.7) n (%)
  Decreased appetite, grade ≥3: 0 n (%)
  Dermatitis acneiform, all grades: 7 (10.3) n (%)
  Dermatitis acneiform, grade ≥3: 0 n (%)
  Diarrhoea, all grades: 37 (54.4) n (%)
  Diarrhoea, grade ≥3: 1 (1.5) n (%)
  Dry skin, all grades: 9 (13.2) n (%)
  Dry skin, grade ≥3: 0 n (%)
  Fatigue, all grades: 19 (27.9) n (%)
  Fatigue, grade ≥3: 0 n (%)
  Hypotension, all grades: 15 (22.1) n (%)
  Hypotension, grade ≥3: 6 (8.8) n (%)
  Nasopharyngitis, all grades: 7 (10.3) n (%)
  Nasopharyngitis, grade ≥3: 0 n (%)
  Nausea, all grades: 48 (70.6) n (%)
  Nausea, grade ≥3: 1 (1.5) n (%)
  Neutropenia, all grades: 7 (10.3) n (%)
  Neutropenia, grade ≥3: 2 (2.9) n (%)
  Oedema peripheral, all grades: 13 (19.1) n (%)
  Oedema peripheral, grade ≥3: 1 (1.5) n (%)
  Patients with ≥1 AE, all grades: 66 (97.1) n (%)
  Patients with ≥1 AE, grade ≥3: 29 (42.6%) n (%) and 29 (42.6) n (%)
  Rash, all grades: 10 (14.7) n (%)
  Rash, grade ≥3: 0 n (%)
  Vomiting, all grades: 26 (38.2) n (%)
  Vomiting, grade ≥3: 1 (1.5) n (%)
SAE grade 3/4, one patient, BID schedule
  AE leading to discontinuation of LXS196: hepatic failure
